Values of other authors as cited in PMC6545338, “Novel chemical starting points for drug discovery in leishmaniasis and Chagas disease” (International Journal for Parasitology: Drugs and Drug …, 2019).

Test system: T. cruzi
Parameters: method as in Morillo et al., 2017a
Conditions: ref Morillo et al., 2017a; for Efficacy in the STOP-CHAGAS trial: patients

Compound	Patients who had to permanently discontinue treatment due to side effects (benznidazole-treated group)	Efficacy in the STOP-CHAGAS trial
O=C(Cn1ccnc1[N+](=O)[O-])NCc1ccccc1 [benznidazole]	32%	62%
CC[C@@H]([C@H](C)O)n1ncn(-c2ccc(N3CCN(c4ccc(OC[C@@H]5CO[C@@](Cn6cncn6)(c6ccc(F)cc6F)C5)cc4)CC3)cc2)c1=O [posaconazole]		19%
